Laboratory results reported in US12728124B2, “Medical use of cystic fibrosis transmembrane conductance regulator (CFTR) modulators” (priority 2020, dated 2026).

How the values were obtained:
CFTR [1] = target: T1, CFTR (Homo sapiens, UniProt P13569); test: CFTR expression by Western blotting in HPMECs stimulated with plasma from patients with severe COVID-19; type: cell-based; conditions: pretreated 10 μmol/L Ivacaftor 24 hours, then 20% (v/v) severe COVID-19 plasma for 24 h; Western blot, densitometry
T1 sequence (P13569 whole entry, looked up): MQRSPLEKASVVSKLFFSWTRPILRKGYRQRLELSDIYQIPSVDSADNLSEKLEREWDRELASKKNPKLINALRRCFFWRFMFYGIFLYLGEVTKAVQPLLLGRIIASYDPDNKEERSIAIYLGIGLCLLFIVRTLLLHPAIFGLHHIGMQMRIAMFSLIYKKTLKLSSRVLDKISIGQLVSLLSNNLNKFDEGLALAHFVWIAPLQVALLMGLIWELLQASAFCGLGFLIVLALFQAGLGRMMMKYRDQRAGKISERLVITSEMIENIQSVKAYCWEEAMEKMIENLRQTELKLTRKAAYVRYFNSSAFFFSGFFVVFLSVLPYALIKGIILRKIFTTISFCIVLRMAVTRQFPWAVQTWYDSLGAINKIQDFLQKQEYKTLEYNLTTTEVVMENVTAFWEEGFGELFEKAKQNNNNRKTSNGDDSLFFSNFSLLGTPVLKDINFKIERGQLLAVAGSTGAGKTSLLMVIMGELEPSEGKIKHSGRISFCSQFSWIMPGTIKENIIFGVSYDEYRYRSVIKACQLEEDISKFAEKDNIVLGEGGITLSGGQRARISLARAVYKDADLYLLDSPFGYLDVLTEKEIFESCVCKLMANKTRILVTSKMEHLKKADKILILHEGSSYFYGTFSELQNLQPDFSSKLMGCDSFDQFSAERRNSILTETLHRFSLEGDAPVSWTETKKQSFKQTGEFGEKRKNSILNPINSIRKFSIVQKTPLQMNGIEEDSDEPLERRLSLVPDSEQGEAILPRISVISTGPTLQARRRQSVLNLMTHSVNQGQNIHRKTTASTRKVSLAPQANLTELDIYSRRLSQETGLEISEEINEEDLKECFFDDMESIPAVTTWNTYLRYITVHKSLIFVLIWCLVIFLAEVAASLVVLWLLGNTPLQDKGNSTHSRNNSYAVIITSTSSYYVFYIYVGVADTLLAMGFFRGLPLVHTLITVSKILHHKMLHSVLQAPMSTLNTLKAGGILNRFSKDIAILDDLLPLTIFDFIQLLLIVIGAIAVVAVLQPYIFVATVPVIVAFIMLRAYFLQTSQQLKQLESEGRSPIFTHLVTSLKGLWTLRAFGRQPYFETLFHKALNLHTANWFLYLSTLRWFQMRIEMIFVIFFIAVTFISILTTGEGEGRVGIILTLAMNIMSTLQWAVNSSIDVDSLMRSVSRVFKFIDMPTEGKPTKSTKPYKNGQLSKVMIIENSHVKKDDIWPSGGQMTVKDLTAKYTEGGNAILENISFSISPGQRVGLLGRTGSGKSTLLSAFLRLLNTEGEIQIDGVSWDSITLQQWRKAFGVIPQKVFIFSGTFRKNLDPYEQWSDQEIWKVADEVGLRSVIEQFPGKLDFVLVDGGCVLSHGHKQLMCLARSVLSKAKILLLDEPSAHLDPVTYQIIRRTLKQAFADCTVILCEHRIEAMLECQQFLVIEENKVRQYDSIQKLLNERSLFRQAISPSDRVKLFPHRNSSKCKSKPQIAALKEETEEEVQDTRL
Method: CFTR expression in endothelial cells was assessed by Western blotting. HPMECs were grown in 6 well plates to confluence. The confluent cells were pretreated with 10 μmol/L Ivacaftor (Cayman chemical) for 24 hours and the next day were stimulated with the above described plasma from COVID-19 patients or healthy donors for 24 h. As positive control, cells were stimulated with the plasma from COVID-19 patients alone (in the absence of CFTR modulators). Plasma samples were diluted to 20% (v/v) for CFTR immunoblotting.
(§1) Cells were lysed in RIPA buffer and protein concentration was measured by BCA assay and samples were stored at −80° C. or immediately analysed by Western blot. Western blots were performed using 7.5% gel. After gel transfer, the blot membrane was incubated for 1 h in 5% milk diluted in tris buffer saline with tween 0.1% (TBS-T) followed by incubation for 24 h with CFTR antibody as the primary antibody diluted 1:500 in TBS-T. The next day, the membrane was incubated for 2 h in donkey anti rabbit as the secondary antibody diluted 1:10000 in TBS-T.

[2] = test system: S. pneumoniae infected mice; test: S. pneumoniae infected mice, Ivacaftor post-treatment: lung protein leakage; type: in vivo, mouse; conditions: Ivacaftor 2 mg/kg i.p. post-treatment from 6 hours post-infection
CFTR [3] = target: T1, CFTR; test: CFTR expression by Western blotting in HPMECs stimulated with pneumolysin; type: cell-based; conditions: pretreated 10 μmol/L Ivacaftor 24 hours, then 0.25 μg/ml PLY for 18 h; Western blot
Method: as §1, with “CFTR expression in endothelial cells was assessed by Western blotting. HPMECs were grown in 6 well plates to confluence. The confluent cells were pretreated with 10 μmol/L Ivacaftor (Cayman chemical) for 24 hours and the next day were stimulated with 0.25 μg/ml PLY for 18 h. Cells” for “Cells”, “by western” for “by Western”

[4] = test system: human pulmonary microvascular endothelial cells (HPMECs); test: Endothelial calcium concentration (fura-2 340/380 ratio) in HPMECs stimulated with pneumolysin; type: cell-based; conditions: 10 μmol/L Ivacaftor for 30 min, then PLY 0.25 μg/ml for 30 min
Method: Permeability of endothelial cells has been additionally assessed by measuring the endothelial calcium concentration as follows: Increases in the endothelial calcium concentration represent a key mechanism that underlies the increase endothelial cell permeability. Increased endothelial calcium leads to contraction of the cells and increase gap formation between endothelial cells that lead to increased permeability. In this measurement, HPMECs were cultured in channel slides to confluence. The confluent cells were incubated for 30 min with Hanks Balanced Salt Solution containing 5% fetal bovine serum (FBS) and 10 μmol/L of the calcium sensitive dye fura-2-acetoxymethyl ester (fura-2AM) dissolved in Pluronic F-127 (20% solution in DMSO). The cells were then mounted in a heated chamber at 37° C. and perfused with Hank's salt solution containing 5% FBS with 10 μmol/L Ivacaftor (Cayman chemical) for 30 min followed by PLY (0.25 μg/ml) stimulation for 30 min. Fura-2 fluorescence was excited by monochromatic illumination at wavelength 340 and 380 nm. After background correction, the 340/380 ratio was calculated using TillVision 4.0 software (Till Photonics Germany) as a measure of endothelial calcium concentration. As positive or negative controls, cells were stimulated with only pneumolysin or non-treated cells were used, respectively.

[5] = test system: human pulmonary microvascular endothelial cells (HPMECs); type: cell-based; conditions: pretreated 24 hours with 10 μmol/L Ivacaftor or 5 μmol/L Lumacaftor, then 0.25 μg/ml pneumolysin; vs pneumolysin alone
CFTR [6] = target: T2, CFTR (Mus musculus, UniProt P26361); test: CFTR expression by Western blotting in lungs of S. pneumoniae infected mice; type: in vivo; conditions: Ivacaftor 2 mg/kg i.p. pre-treatment; Western blot
T2 construct: Ivacaftor pre-treatment stabilized the expression of CFTR in lungs of mice infected with S. pneumoniae; from tissue; host or cells: mouse lung tissue (mice from Charles River, Germany)
T2 sequence (P26361 whole entry): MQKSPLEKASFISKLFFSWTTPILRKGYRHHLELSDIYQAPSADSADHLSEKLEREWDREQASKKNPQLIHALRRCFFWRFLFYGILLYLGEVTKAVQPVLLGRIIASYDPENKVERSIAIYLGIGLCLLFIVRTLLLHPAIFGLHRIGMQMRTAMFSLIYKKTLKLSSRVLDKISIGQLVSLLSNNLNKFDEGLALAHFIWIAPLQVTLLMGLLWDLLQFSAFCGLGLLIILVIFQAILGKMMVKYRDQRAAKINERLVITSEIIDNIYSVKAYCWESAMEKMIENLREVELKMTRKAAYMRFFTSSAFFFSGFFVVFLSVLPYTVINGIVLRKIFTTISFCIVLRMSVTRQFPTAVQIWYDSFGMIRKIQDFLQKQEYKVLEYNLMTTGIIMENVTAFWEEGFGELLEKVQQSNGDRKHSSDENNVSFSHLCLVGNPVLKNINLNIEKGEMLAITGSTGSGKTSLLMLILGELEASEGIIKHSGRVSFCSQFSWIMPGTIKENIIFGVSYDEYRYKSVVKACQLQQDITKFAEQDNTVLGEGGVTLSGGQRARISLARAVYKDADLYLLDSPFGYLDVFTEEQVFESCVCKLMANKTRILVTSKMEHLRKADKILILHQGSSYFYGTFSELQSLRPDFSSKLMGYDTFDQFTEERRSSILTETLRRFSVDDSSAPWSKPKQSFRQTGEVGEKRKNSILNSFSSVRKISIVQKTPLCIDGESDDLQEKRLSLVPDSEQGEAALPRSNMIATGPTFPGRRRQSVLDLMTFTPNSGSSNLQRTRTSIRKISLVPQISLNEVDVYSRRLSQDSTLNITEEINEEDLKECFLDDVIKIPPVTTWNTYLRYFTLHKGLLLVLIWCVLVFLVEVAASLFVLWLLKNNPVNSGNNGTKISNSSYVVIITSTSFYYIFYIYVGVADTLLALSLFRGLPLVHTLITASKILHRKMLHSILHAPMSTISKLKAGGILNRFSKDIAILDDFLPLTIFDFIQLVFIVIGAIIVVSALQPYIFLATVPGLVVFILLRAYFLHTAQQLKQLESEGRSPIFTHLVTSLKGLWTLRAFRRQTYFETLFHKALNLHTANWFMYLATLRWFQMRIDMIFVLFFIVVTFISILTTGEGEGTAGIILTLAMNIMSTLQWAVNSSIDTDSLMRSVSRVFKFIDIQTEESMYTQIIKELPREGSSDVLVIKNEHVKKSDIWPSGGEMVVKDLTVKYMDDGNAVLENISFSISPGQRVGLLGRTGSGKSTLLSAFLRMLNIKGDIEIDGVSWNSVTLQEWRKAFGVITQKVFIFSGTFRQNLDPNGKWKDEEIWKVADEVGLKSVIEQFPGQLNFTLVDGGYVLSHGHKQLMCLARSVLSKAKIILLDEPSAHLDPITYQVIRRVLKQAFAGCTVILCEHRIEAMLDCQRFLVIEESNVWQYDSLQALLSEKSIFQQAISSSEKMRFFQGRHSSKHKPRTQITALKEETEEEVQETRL

[7] = test system: human pulmonary microvascular endothelial cells (HPMECs); test: Transendothelial electrical resistance (ECIS) of HPMECs stimulated with plasma from patients with severe COVID-19; type: cell-based; conditions: pretreated 24 hours with 10 μmol/L Ivacaftor or 5 μmol/L Lumacaftor, then 10% (v/v) severe COVID-19 plasma for 24 h
[8] = test system: S. pneumoniae infected mice; test: S. pneumoniae infected mice, Ivacaftor pre-treatment: lung protein leakage, survival, BALF immune cells; type: in vivo, mouse
[9] = Ivacaftor 2 mg/kg i.p. pre-treatment, S. pneumoniae infected mice, 48 h p.i., FACS

Compound	CFTR expression in HPMECs after stimulation with plasma from COVID-19 patients (CFTR [1])	endogenous mouse serum albumin BALF/plasma ratio (protein leakage into the lung) ([2]; 48 h post infection with S. pneumoniae)	exogenous human serum albumin (HSA) BALF/plasma ratio (protein leakage into the lung) ([2]; HSA i.v. 1 h before BAL, 48 h post infection)	CFTR expression in HPMECs after pneumolysin stimulation (CFTR [3])	endothelial calcium concentration ([Ca2+]i) after pneumolysin stimulation [4]	transendothelial electrical resistance of HPMEC monolayer after pneumolysin stimulation [5]	CFTR expression in lungs of S. pneumoniae infected mice (CFTR [6])	transendothelial electrical resistance of HPMECs after stimulation with plasma from COVID-19 patients [7]	survival rate in S. pneumoniae infected mice ([8]; Ivacaftor 2 mg/kg i.p. pre-treatment)	endogenous mouse serum albumin BALF/plasma ratio (protein leakage into the lung) ([8]; Ivacaftor 2 mg/kg i.p. pre-treatment from 24 h before infection, 48 h post infection with S. pneumoniae)	exogenous human serum albumin (HSA) BALF/plasma ratio (protein leakage into the lung) ([8]; Ivacaftor 2 mg/kg i.p. pre-treatment from 24 h before infection, HSA i.v. 1 h before BAL, 48 h post infection)	inflammatory macrophages in BALF [8, 9]	leukocytes in BALF [8, 9]	polymorphonuclear leukocytes (PMN) in BALF [8, 9]
CC(C)(C)c1cc(C(C)(C)C)c(NC(=O)c2c[nH]c3ccccc3c2=O)cc1O [Ivacaftor, N-(5-hydroxy-2,4-ditert-butyl-phenyl)-4-oxo-1H-quinoline-3-carboxamide]	CFTR expression comparable to control cells	reduced protein leakage into the lung	reduced protein leakage into the lung	CFTR expression comparable to control cells	lesser increase	less reduced resistance	stabilized expression of CFTR	less reduced transendothelial electrical resistance	increased survival rate	reduced protein leakage into the lung	reduced protein leakage into the lung	decreased the levels of all three inflammatory cell subsets in the BALF	decreased the levels of all three inflammatory cell subsets in the BALF	decreased the levels of all three inflammatory cell subsets in the BALF
Cc1ccc(NC(=O)C2(c3ccc4c(c3)OC(F)(F)O4)CC2)nc1-c1cccc(C(=O)O)c1 [Lumacaftor, 3-[6-({[1-(2,2-difluoro-1,3-benzodioxol-5-yl)cyclopropyl]carbonyl}amino)-3-methylpyridin-2-yl]benzoic acid]	–	–	–	–	–	less reduced resistance	–	less reduced transendothelial electrical resistance	–	–	–	–	–	–
